The results in this text go back to patent US8389500B2, “Fused heterocyclic compounds as ion channel modulators” (Gilead Sciences, Inc., priority 2008, dated 2013).

The target of the assay is T1, wild-type human cardiac sodium channel, hNav1.5 (late sodium current) (Homo sapiens, UniProt Q14524).
T1 construct: host or cells: HEK293
As to the kind of experiment: Late INa screening assay (PatchXpress whole cell patch clamp). It counts as cell-based. The conditions noted are these: HEK293 hNav1.5, late INa generated with 10 μM Tefluthrin (some experiments 50 nM ATX II); for inhibition at 10 µM: 10 μM test compound, read-out: Late INa % blk (10 μM test cmpd); for inhibition at 1 µM: 1 μM test compound, read-out: Late INa % blk (1 μM test cmpd). Here is the method:
The late sodium current (Late INa) and peak sodium current (Peak INa) assays are performed on an automated electrophysiology platform, PatchXpress 7000A (MDS Analytical Technologies, Sunnyvale, Calif.), which uses the whole cell patch clamp technique to measure currents through the cell membrane of up to 16 cells at a time. The assay uses an HEK293 (human embryonic kidney) cell line heterologously expressing the wild-type human cardiac sodium channel, hNav1.5, purchased from Millipore (Billerica, Mass.). No beta subunits were coexpressed with the Na channel alpha subunit. Cells are maintained with standard tissue culture procedures and stable channel expression is maintained with 400 μg/ml Geneticin in the culture medium. […] Experiments are carried out at 24-27° C.
For both the Late INa and Peak INa assays, series resistance compensation is set to 50% and whole-cell compensation is performed automatically. […] Currents through open sodium channels are automatically recorded and stored in the DataXpress2 database (MDS Analytical Technologies, Sunnyvale, Calif.). Analysis is performed using DataXpress2 analysis software and data are compiled in Excel.
Compound stocks are routinely made in glass vials to 10 mM in dimethyl sulfoxide (DMSO). In some cases, when compounds are not soluble in DMSO, they are made in 100% ethanol. Stocks are sonicated as necessary. The extracellular solution for screening Late INa is composed of: 140 mM NaCl, 4 mM KCl, 1.8 mM CaCl2, 0.75 mM MgCl2, and 5 mM HEPES with pH adjusted to 7.4 using NaOH. The extracellular solution for screening Peak INa is composed of: 20 mM NaCl, 120 mM N-methyl-D glucamine, 4 mM KCl, 1.8 mM CaCl2, 0.75 mM MgCl2, and 5 mM HEPES with pH adjusted to 7.4 using HCl. The intracellular solution used to perfuse the inside of the cells for both the Late INa and Peak INa assays contains: 120 mM CsF, 20 mM CsCl, 5 mM EGTA, 5 mM HEPES and pH adjusted to 7.4 with CsOH. […] The 0Na extracellular solution used at the end of each experiment for the Late INa and Peak INa assays to measure baseline current contains: 140 mM N-methyl-D-glucamine; 4 mM KCl; 1.8 mM CaCl2; 0.75 mM MgCl2; 5 mM HEPES and pH was adjusted to 7.4 with HCl.
For the Late INa assay, sodium channels are activated every 10 seconds (0.1 Hz) by depolarizing the cell membrane to −20 mV for 250 milliseconds (ms) from a holding potential of −120 mV. In response to a −20 mV voltage step, typical Nav1.5 sodium currents activate rapidly to a peak negative current and then inactivate nearly completely within […].
All compounds are tested to determine their activity in blocking the late sodium current. Late INa current is generated by adding 10 μM Tefluthrin (pyrethroid) to the extracellular solution while recording Na currents For some experiments, 50 nM ATX II (sea anemone toxin), another late Na activator, was used to generate the late component. […] After establishing the whole cell recording configuration, late INa activators are added to each well 4 times over a 16-17 minute period so that the late component of the Na current reaches a stable value. […] Measurements are made at the end of exposure to the third compound addition and values are normalized to the current level when all Na^+ is removed from the extracellular solution after two additions of ONa-ECF. Results are reported as percent block of late INa

T1 sequence (Q14524 whole entry): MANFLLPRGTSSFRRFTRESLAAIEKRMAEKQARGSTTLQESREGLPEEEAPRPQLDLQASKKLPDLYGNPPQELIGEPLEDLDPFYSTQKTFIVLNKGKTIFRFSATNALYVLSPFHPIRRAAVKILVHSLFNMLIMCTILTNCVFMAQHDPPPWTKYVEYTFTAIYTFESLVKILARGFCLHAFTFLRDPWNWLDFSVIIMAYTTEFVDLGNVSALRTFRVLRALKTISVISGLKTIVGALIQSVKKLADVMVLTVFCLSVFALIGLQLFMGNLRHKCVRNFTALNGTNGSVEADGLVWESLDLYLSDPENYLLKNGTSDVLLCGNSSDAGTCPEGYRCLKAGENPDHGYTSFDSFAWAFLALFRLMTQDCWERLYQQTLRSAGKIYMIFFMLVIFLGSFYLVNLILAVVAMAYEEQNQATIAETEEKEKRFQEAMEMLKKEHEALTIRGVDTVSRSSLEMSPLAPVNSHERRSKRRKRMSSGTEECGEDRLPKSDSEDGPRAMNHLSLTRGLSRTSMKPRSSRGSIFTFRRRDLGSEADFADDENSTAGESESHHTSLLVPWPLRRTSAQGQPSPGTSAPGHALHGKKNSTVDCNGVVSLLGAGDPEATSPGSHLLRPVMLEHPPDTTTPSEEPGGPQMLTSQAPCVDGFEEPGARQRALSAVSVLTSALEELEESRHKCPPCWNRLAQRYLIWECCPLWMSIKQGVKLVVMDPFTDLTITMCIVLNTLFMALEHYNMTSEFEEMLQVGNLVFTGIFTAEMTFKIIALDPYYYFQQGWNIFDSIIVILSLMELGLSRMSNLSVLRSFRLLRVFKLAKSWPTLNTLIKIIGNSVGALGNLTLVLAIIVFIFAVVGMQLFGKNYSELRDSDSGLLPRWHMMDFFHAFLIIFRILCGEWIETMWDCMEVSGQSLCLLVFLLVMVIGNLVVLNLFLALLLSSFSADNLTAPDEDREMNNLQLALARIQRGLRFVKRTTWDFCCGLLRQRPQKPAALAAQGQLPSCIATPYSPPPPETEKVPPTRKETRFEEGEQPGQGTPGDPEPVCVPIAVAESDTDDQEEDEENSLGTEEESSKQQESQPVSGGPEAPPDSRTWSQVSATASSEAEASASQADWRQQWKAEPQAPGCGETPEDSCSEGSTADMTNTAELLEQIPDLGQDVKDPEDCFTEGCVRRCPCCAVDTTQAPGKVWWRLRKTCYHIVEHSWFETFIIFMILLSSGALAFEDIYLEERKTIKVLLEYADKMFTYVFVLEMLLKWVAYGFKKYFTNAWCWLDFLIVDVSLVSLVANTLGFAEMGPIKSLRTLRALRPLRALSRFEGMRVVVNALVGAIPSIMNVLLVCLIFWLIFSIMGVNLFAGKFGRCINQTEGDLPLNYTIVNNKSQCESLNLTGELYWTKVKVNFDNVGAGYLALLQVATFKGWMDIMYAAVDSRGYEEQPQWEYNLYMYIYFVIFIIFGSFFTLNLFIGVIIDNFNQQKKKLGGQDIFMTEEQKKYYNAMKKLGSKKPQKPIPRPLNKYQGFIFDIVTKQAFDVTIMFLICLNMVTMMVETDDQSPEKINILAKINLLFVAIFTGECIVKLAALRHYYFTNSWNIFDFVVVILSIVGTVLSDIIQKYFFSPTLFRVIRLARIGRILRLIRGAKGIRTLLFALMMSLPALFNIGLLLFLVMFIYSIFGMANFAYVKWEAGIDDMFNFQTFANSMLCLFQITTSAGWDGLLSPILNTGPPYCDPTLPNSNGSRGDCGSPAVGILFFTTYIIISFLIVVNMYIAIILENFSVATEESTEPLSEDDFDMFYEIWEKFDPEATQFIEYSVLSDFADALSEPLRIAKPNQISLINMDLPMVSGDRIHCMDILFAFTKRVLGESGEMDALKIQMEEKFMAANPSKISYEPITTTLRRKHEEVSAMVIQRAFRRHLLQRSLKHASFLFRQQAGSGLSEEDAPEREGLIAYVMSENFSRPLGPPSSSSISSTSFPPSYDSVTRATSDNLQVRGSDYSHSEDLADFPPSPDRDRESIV

On to `CS(=O)(=O)Nc1ccc(-c2ccccc2OC(F)(F)F)c(C(F)(F)F)c1` [PT-016, N-[2′-(trifluoromethoxy)-2-(trifluoromethyl)biphenyl-4-yl]methanesulfonamide], for which the inhibition at 10 µM worked out at 45.8%.

For the compound `Cc1cc(N(Cc2ccc(CC(=O)O)cc2)S(=O)(=O)C2CC2)ccc1-c1ccc(Oc2ccccc2)cc1` [PT-133, 2-(4-((N-(2-methyl-4′-phenoxybiphenyl-4-yl)cyclopropanesulfonamido)methyl)phenyl)acetic acid], the inhibition at 10 µM came to 34.1%.

Take `CS(=O)(=O)N(CC(=O)O)c1ccc(-c2ccc(F)c(Cl)c2)c(Cl)c1` [PT-104, N-(2,3′-dichloro-4′-fluorobiphenyl-4-yl)-N-(methylsulfonyl)glycine]: the inhibition at 10 µM is 14.2%.

Consider `Cc1cc(NS(=O)(=O)C2CC2)ccc1-c1ccc(-c2nn[nH]n2)cc1` [PT-158, N-(2-methyl-4′-(2H-tetrazol-5-yl)biphenyl-4-yl)cyclopropanesulfonamide], for which the inhibition at 10 µM is 2.8%.

For `CS(=O)(=O)N(Cc1nn[nH]n1)c1ccc(-c2ccc(Cl)c(F)c2)c(Cl)c1` [PT-064, N-(2,4′-dichloro-3′-fluorobiphenyl-4-yl)-N-(2H-tetrazol-5-ylmethyl)methanesulfonamide], the inhibition at 10 µM is 30.5%.

Regarding `CS(=O)(=O)Nc1ccc(-c2ccc(C(F)(F)F)cc2)c(NC(=O)c2cccnc2)c1` [PT-165, N-(4-(methylsulfonamido)-4′-(trifluoromethyl)biphenyl-2-yl)nicotinamide], the inhibition at 10 µM is -0.3%.

`CS(=O)(=O)Nc1ccc(-c2cccc(C(F)(F)F)c2)c(Cl)c1` [PT-036, N-[2-chloro-3′-(trifluoromethyl)biphenyl-4-yl]methanesulfonamide]: the inhibition at 10 µM was determined as 64.1%.

For the compound `CS(=O)(=O)Nc1ccc(-c2cc(C(F)(F)F)cc(C(F)(F)F)c2)c(Cl)c1` [PT-065, N-[2-chloro-3′,5′-bis(trifluoromethyl)biphenyl-4-yl]methanesulfonamide], the inhibition at 1 µM was 27.8% and the inhibition at 10 µM came out at 85.6%.

For `CS(=O)(=O)N(CC(=O)O)c1ccc(-c2cccc(OC(F)(F)F)c2)c(Cl)c1` [PT-029, N-[2-chloro-3′-(trifluoromethoxy)biphenyl-4-yl]-N-(methylsulfonyl)glycine], the inhibition at 10 µM came to 28.4%.

`COc1cccc(S(=O)(=O)Nc2cccc(-c3ccc(Cl)cc3)c2)c1` [PT-127, N-(4′-chlorobiphenyl-3-yl)-3-methoxybenzenesulfonamide]: the inhibition at 10 µM was 25%.

Consider `CCOC(=O)c1ccc(CN(c2ccc(-c3ccc(OC(C)C)cc3)c(C)c2)S(C)(=O)=O)cc1` [PT-145, ethyl 4-((N-(4′-isopropoxy-2-methylbiphenyl-4-yl)methylsulfonamido)methyl)benzoate], for which the inhibition at 10 µM came to 17.1%.

On to `CS(=O)(=O)Nc1ccc(-c2ccc(OC(F)(F)F)cc2)c(F)c1` [PT-078, N-[2-fluoro-4′-(trifluoromethoxy)biphenyl-4-yl]methanesulfonamide], for which the inhibition at 10 µM came to 49.1%.

Regarding `Cc1cc(N([C@@H](C)C(=O)O)S(C)(=O)=O)ccc1-c1ccc(Oc2ccccc2)cc1` [PT-105, N-(2-methyl-4′-phenoxybiphenyl-4-yl)-N-(methylsulfonyl)alanine], the inhibition at 10 µM was 5.8%.

Take `CCOC(=O)CN(c1ccc(-c2cccc(OC(F)(F)F)c2)c(Cl)c1)S(C)(=O)=O` [PT-028, ethyl N-[2-chloro-3′-(trifluoromethoxy)biphenyl-4-yl]-N-(methylsulfonyl)glycinate]: the inhibition at 10 µM is 62.1%.

Regarding `Cc1cc(NS(=O)(=O)C2CC2)ccc1-c1ccc(OC(C)C)cc1` [PT-151, N-(4′-isopropoxy-2-methylbiphenyl-4-yl)cyclopropanesulfonamide], the inhibition at 10 µM was 32.6%.

As to `CS(=O)(=O)N(CC(=O)O)c1ccc(-c2ccc(C(F)(F)F)cc2)c(Cl)c1` [PT-111, N-[2-chloro-4′-(trifluoromethyl)biphenyl-4-yl]-N-(methylsulfonyl)glycine], the inhibition at 10 µM turned out to be 14.6%.

On to `CCOC(=O)CN(c1ccc(-c2ccc(Cl)c(F)c2)c(OC)c1)S(C)(=O)=O` [PT-019, ethyl N-(4′-chloro-3′-fluoro-2-methoxybiphenyl-4-yl)-N-(methylsulfonyl)glycinate], for which the inhibition at 10 µM stood at 55%.

Consider `CC(C)NC(=O)c1cc(NS(C)(=O)=O)ccc1-c1ccc(Oc2ccccc2)cc1` [PT-140, N-isopropyl-4-(methylsulfonamido)-4′-phenoxybiphenyl-2-carboxamide], for which the inhibition at 10 µM was 47.4%.

On to `Cc1cc(NS(C)(=O)=O)ccc1-c1ccc(OC(C)C)cc1` [PT-144, N-(4′-isopropoxy-2-methylbiphenyl-4-yl)methanesulfonamide], for which the inhibition at 10 µM was 44.7%.

Regarding `CS(=O)(=O)Nc1ccc(-c2ccc(F)c(Cl)c2)cc1Cl` [PT-030, N-(3,3′-dichloro-4′-fluorobiphenyl-4-yl)methanesulfonamide], the inhibition at 10 µM was 41.4%.

In the case of `CS(=O)(=O)N(c1ccc(-c2ccc(Oc3ccccc3)cc2)cc1Cl)C1CCC[C@@H]1O` (stereo partly drawn) [PT-066, N-(3-chloro-4′-phenoxybiphenyl-4-yl)-N-[(2S)-2-hydroxycyclopentyl]methanesulfonamide], the inhibition at 10 µM was determined as 33.8%.

With `CS(=O)(=O)Nc1ccc(-c2ccc(Oc3ccccc3)cc2)c(N)c1` [PT-163, N-(2-amino-4′-phenoxybiphenyl-4-yl)methanesulfonamide], the inhibition at 10 µM came to 54.7%.

Turning to `CC(C)Oc1ccc(-c2ccc(NS(C)(=O)=O)c(Cl)c2)cc1` [PT-148, N-(3-chloro-4′-isopropoxybiphenyl-4-yl)methanesulfonamide], the inhibition at 10 µM was 36.2%.

As to `Cc1cc(-c2ccc(Oc3ccccc3)cc2)c(Cl)cc1N(Cc1ccc(C(=O)O)cc1)S(C)(=O)=O` [PT-113, 4-{[(2-chloro-5-methyl-4′-phenoxybiphenyl-4-yl)(methylsulfonyl)amino]methyl}benzoic acid], the inhibition at 10 µM was 34%.

On to `CS(=O)(=O)Nc1ccc(-c2cccc(OC(F)(F)F)c2)c(Cl)c1` [PT-021, N-[2-chloro-3′-(trifluoromethoxy)biphenyl-4-yl]methanesulfonamide], for which the inhibition at 1 µM came out at 34% and the inhibition at 10 µM worked out at 77.5%.

For the compound `Cc1cc(NS(C)(=O)=O)ccc1-c1ccc(F)c(F)c1` [PT-057, N-(3′,4′-difluoro-2-methylbiphenyl-4-yl)methanesulfonamide], the inhibition at 10 µM turned out to be 35.9%.

`CS(=O)(=O)N(Cc1ccc(-c2nnn[nH]2)cc1)c1ccc(-c2ccc(Oc3ccccc3)cc2)c(Cl)c1` [PT-135, N-(4-(1H-tetrazol-5-yl)benzyl)-N-(2-chloro-4′-phenoxybiphenyl-4-yl)methanesulfonamide]: the inhibition at 10 µM is 9.7%.

As to `CS(=O)(=O)Nc1ccc(-c2cccc(Cl)c2)c(Cl)c1` [PT-053, N-(2,3′-dichlorobiphenyl-4-yl)methanesulfonamide], the inhibition at 1 µM was determined as 29.9% and the inhibition at 10 µM worked out at 72.2%.

Turning to `CS(=O)(=O)N(CC(=O)O)c1ccc(-c2cccc(OC(F)(F)F)c2)c(F)c1` [PT-103, N-[2-fluoro-3′-(trifluoromethoxy)biphenyl-4-yl]-N-(methylsulfonyl)glycine], the inhibition at 10 µM is 21.2%.

As for `CS(=O)(=O)Nc1ccc(-c2ccccc2F)c(Cl)c1` [PT-035, N-(2-chloro-2′-fluorobiphenyl-4-yl)methanesulfonamide], the inhibition at 10 µM was determined as 48.2%.

Consider `Cc1cc(N(Cc2ccc(C(=O)O)cc2)S(C)(=O)=O)ccc1-c1ccc(OC(C)C)cc1` [PT-146, 4-((N-(4′-isopropoxy-2-methylbiphenyl-4-yl)methylsulfonamido)methyl)benzoic acid], for which the inhibition at 10 µM came to 3.65%.
